Where two headings read alike, the source gives them in different places.
How the values were obtained:
[1] = system: Herpes simplex Typ 1 Kupka; assay: One-step replication cycle on permanent human kidney cell line
[2] = system: SE-spezifischer rosettenbildender Zellen; assay: Rosette test (SE-specific rosettes); format: in vivo, Maus (Inzuchtstamm CBA); conditions: oral administration
From the text: (§1) Der Nachweis immunstimulierender Effekte wurde weiterhin an der Maus (Inzuchtstamm CBA) und u. a. mit Hilfe folgender Nachweismethoden geführt: • Plaque-Test zum Nachweis von SE-spezifischen IgM- und IgG-PBZ, • Rosettentest.
Aus den Werten wird deutlich, daß die Verbindungen der allgemeinen Formel I einen gut nachweisbaren Effekt auf die Effektor-T-Lymphozyten-abhängige verzögerte Uberempfindlichkeit haben. Kontaktdermatitis-Werte ab 120 (≙ 20 % Steigerung gegenüber der Kontrolle) bzw. unter 80 werden als Nachweis eines stimulatorischen bzw. suppressorischen Effektes angesehen. Antikörpertiter-Differenzen von >+1 bzw. <-1 verdeutlichen den stimulatorischen bzw. suppressorischen Effekt der Substanzen auf die humorale Immunantwort. 2. Untersuchungen zur immunstimulierenden Wirkung • 2.1 Plaque-Test zum Nachweis von SE-spezifischen IgM- und IgG-PBZ Zur Prüfung immunstimulierender Effekte wurde u. a. auch der Einfluß von Verbindungen der allgemeinen Formel I auf die humorale Immunantwort an Mäusen des Inzuchtstammes CBA und mittels Hämolyse-Plaque-Test (HPT) untersucht. Diese Technik erlaubt die quantitative und getrennte Erfassung IgM- und IgG-Antikörper produzierender Zellen (= Plaque bildende Zellen; PBZ). Die Immunisierung mit Schaferythrozyten (SE) erfolgte am Tag 0, die Substanzapplikation (Tagesdosis 1.10^-5 mol/kg Körpermasse; peroral) an den Tagen -1 bis +3 (zur Erfassung der IgM-PBZ) bzw. an den Tagen +1 bis +5 (zur Erfassung der IgG-PBZ). • 2.2 Ergebnisse: Durch tägliche und über 5 Tage gehende Gabe von 2,0 mg der Verbindung gemäß Beispiel 1 pro kg Körpermasse konnte die Zahl der IgM-PBZ auf einen Durchschnittswert von 352 % im Vergleich zur Kontrolle (100 %) gesteigert werden. Die gleiche Form der Behandlung führte zu einer Erhöhung der IgG-PBZ auf 497 % (Kontrolle: 100 %). In beiden Fällen erwies sich die Differenz zur Kontrolle im t-Test mit p < 0,001 als signifikant. […]

Vaccinia Lister [3] = assay: One-step replication cycle on permanent human kidney cell line
Vaccinia Lister [4] = format: cell-based, Vaccinia-Virus; conditions: for % Hemmung / Senkung des Virusertrages im Vergleich zur unbehandelten Kontrolle: Vaccinia Lister
Influenza A/WSN = assay: One-step replication cycle on chick embryo cells; format: cell-based, Influenza-Virus; conditions: for % Hemmung / Senkung des Virusertrages im Vergleich zur unbehandelten Kontrolle: Influenza A/WSN
Adeno-Virus Typ 4 = assay: Antiviral test in vitro; format: cell-based
Coxsackie A 9-Virus = assay: Antiviral test in vitro; format: cell-based
[5] = system: SE-spezifischen IgM- und IgG-PBZ; assay: Haemolysis plaque test (immunostimulation); format: in vivo, Maus (Inzuchtstamm CBA); conditions: 2,0 mg/kg daily over 5 days, peroral, p < 0,001
From the text: as §1
Aus den Werten wird deutlich, daß die Verbindungen der allgemeinen Formel I einen gut nachweisbaren Effekt auf die Effektor-T-Lymphozyten-abhängige verzögerte Uberempfindlichkeit haben. Kontaktdermatitis-Werte ab 120 (≙ 20 % Steigerung gegenüber der Kontrolle) bzw. unter 80 werden als Nachweis eines stimulatorischen bzw. suppressorischen Effektes angesehen. Antikörpertiter-Differenzen von >+1 bzw. <-1 verdeutlichen den stimulatorischen bzw. suppressorischen Effekt der Substanzen auf die humorale Immunantwort. 2. Untersuchungen zur immunstimulierenden Wirkung • 2.1 Plaque-Test zum Nachweis von SE-spezifischen IgM- und IgG-PBZ Zur Prüfung immunstimulierender Effekte wurde u. a. auch der Einfluß von Verbindungen der allgemeinen Formel I auf die humorale Immunantwort an Mäusen des Inzuchtstammes CBA und mittels Hämolyse-Plaque-Test (HPT) untersucht. Diese Technik erlaubt die quantitative und getrennte Erfassung IgM- und IgG-Antikörper produzierender Zellen (= Plaque bildende Zellen; PBZ). […]

[6] = system: Vesicular-stomatitis Indiana; assay: Plaque reduction test on primary HEZ; format: cell-based
[7] = Beispielreihe 5a, Herpes simplex Typ 1, 125 µmol/l
[8] = Beispielreihe 5a, Herpes simplex Typ 1, 250 µmol/l
[9] = Beispielreihe 5b, Hühnerembryonalfibroblasten, 125 µmol/l
[10] = Beispielreihe 5b, Hühnerembryonalfibroblasten, 250 µmol/l
[11] = Beispielreihe 5b, Hühnerembryonalfibroblasten, 62,5 µmol/l
[12] = Beispielreihe 5b, Hühnerembryonalfibroblasten, 62,5 µmol/l, 62.5 µM
[13] = Beispielreihe 3, Herpes simplex Typ 1 Kupka, 125 µmol/l, mean of two experiments
[14] = Beispielreihe 3, Herpes simplex Typ 1 Kupka, 250 µmol/l, mean of two experiments
[15] = Beispielreihe 3, 125 µmol/l, mean of two experiments
[16] = Beispielreihe 3, 250 µmol/l, mean of two experiments
[17] = Beispielreihe 2, HEZ, 125 µmol/l, mean of three experiments
[18] = Beispielreihe 2, HEZ, 250 µmol/l, mean of three experiments
[19] = Beispielreihe 2, HEZ, 31,25 µmol/l, mean of three experiments
[20] = Beispielreihe 2, HEZ, 31,25 µmol/l, mean of three experiments, 31.25 µM
[21] = Beispielreihe 2, HEZ, 62,5 µmol/l, mean of three experiments
[22] = Beispielreihe 2, HEZ, 62,5 µmol/l, mean of three experiments, 62.5 µM

For `COc1cc2[nH]c(=O)n(CCCS)c(=O)c2cc1OC` [Beispiel 2, 3-(3-Mercaptoprop-1-yl)-6,7-dimethoxychinazolin-2,4(1H,3H)-dion], the “% Hemmung” value [1, 7] was > 99,99%, the “Senkung des Virusertrages im Vergleich zur unbehandelten Kontrolle” value [1, 7] was 6,5 log10 TCID50/0,2 ml and the “% Hemmung” value [1, 8] was > 99,99%. For the same molecule, the “Senkung des Virusertrages im Vergleich zur unbehandelten Kontrolle” value [1, 8] was 6,5 log10 TCID50/0,2 ml, the “Senkung des Virusertrages im Vergleich zur unbehandelten Kontrolle” value ([1]; Beispielreihe 5a, Herpes simplex Typ 1, 31,25 µmol/l) was 3,67 log10 TCID50/0,2 ml and the “% Hemmung” value ([1]; Beispielreihe 5a, Herpes simplex Typ 1, 31,25 µmol/l, 31.25 µM) was 99,97%. For the same molecule, the “Senkung des Virusertrages im Vergleich zur unbehandelten Kontrolle” value ([1]; Beispielreihe 5a, Herpes simplex Typ 1, 62,5 µmol/l) was 5,0 log10 TCID50/0,2 ml, the “% Hemmung” value ([1]; Beispielreihe 5a, Herpes simplex Typ 1, 62,5 µmol/l, 62.5 µM) was > 99,99% and the “SE-spezifischer rosettenbildender Zellen” value [2] was “signifikante Förderung”. The “% Hemmung” value (Vaccinia Lister [3]; Beispielreihe 5a, 125 µmol/l) was > 99,99%, the “Senkung des Virusertrages im Vergleich zur unbehandelten Kontrolle” value (Vaccinia Lister [3]; Beispielreihe 5a, 125 µmol/l) was 5,0 log10 TCID50/0,2 ml and the “% Hemmung” value (Vaccinia Lister [3]; Beispielreihe 5a, 250 µmol/l) was > 99,99%. For the same molecule, the “Senkung des Virusertrages im Vergleich zur unbehandelten Kontrolle” value (Vaccinia Lister [3]; Beispielreihe 5a, 250 µmol/l) was 5,0 log10 TCID50/0,2 ml, the “Senkung des Virusertrages im Vergleich zur unbehandelten Kontrolle” value (Vaccinia Lister [3]; Beispielreihe 5a, 31,25 µmol/l) was 2,84 log10 TCID50/0,2 ml and the “% Hemmung” value (Vaccinia Lister [3]; Beispielreihe 5a, 31,25 µmol/l, 31.25 µM) was 99,84%. The “Senkung des Virusertrages im Vergleich zur unbehandelten Kontrolle” value (Vaccinia Lister [3]; Beispielreihe 5a, 62,5 µmol/l) was 5,0 log10 TCID50/0,2 ml, the “% Hemmung” value (Vaccinia Lister [3]; Beispielreihe 5a, 62,5 µmol/l, 62.5 µM) was > 99,99% and the “% Hemmung” value (Vaccinia Lister [4]; [9]) was > 99,99%. For the same molecule, the “Senkung des Virusertrages im Vergleich zur unbehandelten Kontrolle” value (Vaccinia Lister [4]; [9]) was 5,0 log10 TCID50/02 ml, the “% Hemmung” value (Vaccinia Lister [4]; [10]) was > 99,99% and the “Senkung des Virusertrages im Vergleich zur unbehandelten Kontrolle” value (Vaccinia Lister [4]; [10]) was 5,0 log10 TCID50/02 ml. For the same molecule, the “Senkung des Virusertrages im Vergleich zur unbehandelten Kontrolle” value (Vaccinia Lister [4]; Beispielreihe 5b, Hühnerembryonalfibroblasten, 31,25 µmol/l) was 3,0 log10 TCID50/02 ml, the “% Hemmung” value (Vaccinia Lister [4]; Beispielreihe 5b, Hühnerembryonalfibroblasten, 31,25 µmol/l, 31.25 µM) was 99,9% and the “Senkung des Virusertrages im Vergleich zur unbehandelten Kontrolle” value (Vaccinia Lister [4]; [11]) was 3,5 log10 TCID50/02 ml. The “% Hemmung” value (Vaccinia Lister [4]; [12]) was 99,93%, the “% Hemmung” value (Influenza A/WSN; [9]) was > 99,99% and the “Senkung des Virusertrages im Vergleich zur unbehandelten Kontrolle” value (Influenza A/WSN; [9]) was 5,0 log10 TCID50/02 ml. For the same molecule, the “% Hemmung” value (Influenza A/WSN; [10]) was > 99,99%, the “Senkung des Virusertrages im Vergleich zur unbehandelten Kontrolle” value (Influenza A/WSN; [10]) was 5,0 log10 TCID50/02 ml and the “Senkung des Virusertrages im Vergleich zur unbehandelten Kontrolle” value (Influenza A/WSN; [11]) was 2,0 log10 TCID50/02 ml. The “% Hemmung” value (Influenza A/WSN; [12]) was 99,0%.
With `O=c1[nH]c2ccccc2c(=O)n1CCS` [Beispiel 1, 3-(2-Mercaptoethyl)-chinazolin-2,4(1H,3H)-dion] the “antivirale Wirkung” value (Adeno-Virus Typ 4) was “nicht antiviral wirksam”, the “% Hemmung” value [1, 13] was > 99,99% and the “Senkung des Virusertrages im Vergleich zur unbehandelten Kontrolle” value [1, 13] was 5,5 log10 TCID50/0,2 ml. The “% Hemmung” value [1, 14] was > 99,99%, the “Senkung des Virusertrages im Vergleich zur unbehandelten Kontrolle” value [1, 14] was 6,0 log10 TCID50/0,2 ml and the “Senkung des Virusertrages im Vergleich zur unbehandelten Kontrolle” value ([1]; Beispielreihe 3, Herpes simplex Typ 1 Kupka, 62,5 µmol/l, mean of two experiments) was 0,75 log10 TCID50/0,2 ml. The “% Hemmung” value ([1]; Beispielreihe 3, Herpes simplex Typ 1 Kupka, 62,5 µmol/l, n. s. = nicht signifikant) was “n. s”, the “antivirale Wirkung” value (Coxsackie A 9-Virus) was “nicht antiviral wirksam” and the “% Hemmung” value (Vaccinia Lister [3]; [15]) was > 99,99%. For the same molecule, the “Senkung des Virusertrages im Vergleich zur unbehandelten Kontrolle” value (Vaccinia Lister [3]; [15]) was > 4,0 log10 TCID50/0,2 ml, the “% Hemmung” value (Vaccinia Lister [3]; [16]) was > 99,99% and the “Senkung des Virusertrages im Vergleich zur unbehandelten Kontrolle” value (Vaccinia Lister [3]; [16]) was > 4,0 log10 TCID50/0,2 ml. For the same molecule, the “Senkung des Virusertrages im Vergleich zur unbehandelten Kontrolle” value (Vaccinia Lister [3]; Beispielreihe 3, 31,25 µmol/l, mean of two experiments) was 3,5 log10 TCID50/0,2 ml, the “% Hemmung” value (Vaccinia Lister [3]; Beispielreihe 3, 31,25 µmol/l, mean of two experiments, 31.25 µM) was > 99,9% and the “Senkung des Virusertrages im Vergleich zur unbehandelten Kontrolle” value (Vaccinia Lister [3]; Beispielreihe 3, 62,5 µmol/l, mean of two experiments) was 4,0 log10 TCID50/0,2 ml. For the same molecule, the “% Hemmung” value (Vaccinia Lister [3]; Beispielreihe 3, 62,5 µmol/l, mean of two experiments, 62.5 µM) was 99,99%, the “IgG-PBZ (Kontrolle: 100 %)” value ([5]; days +1 to +5) was 497% and the “Zahl der IgM-PBZ im Vergleich zur Kontrolle (100 %)” value ([5]; days -1 to +3, average value) was 352%. For the same molecule, the “% Hemmung” value (Vaccinia Lister [4]; [17]) was 99,99%, the “Senkung des Virusertrages im Vergleich zur unbehandelten Kontrolle” value (Vaccinia Lister [4]; [17]) was 4,0 log10 TCID50/0,2 ml and the “% Hemmung” value (Vaccinia Lister [4]; [18]) was > 99,99%. For the same molecule, the “Senkung des Virusertrages im Vergleich zur unbehandelten Kontrolle” value (Vaccinia Lister [4]; [18]) was 5,67 log10 TCID50/0,2 ml, the “Senkung des Virusertrages im Vergleich zur unbehandelten Kontrolle” value (Vaccinia Lister [4]; [19]) was 1,0 log10 TCID50/0,2 ml and the “% Hemmung” value (Vaccinia Lister [4]; [20]) was 99,0%. The “Senkung des Virusertrages im Vergleich zur unbehandelten Kontrolle” value (Vaccinia Lister [4]; [21]) was 2,5 log10 TCID50/0,2 ml, the “% Hemmung” value (Vaccinia Lister [4]; [22]) was 99,68% and the “Therapeutischer Index = Verhältnis von maximal verträglicher und minimal wirksamer Dosis” value (Vaccinia Lister [4]; für Vaccinia-Virus, HEZ) was 8. For the same molecule, the “Plaquereduktion in % zur Viruskontrolle auf primären HEZ” value ([6]; 125 µmol/l, mean of two experiments) was 15%, the “Plaquereduktion in % zur Viruskontrolle auf primären HEZ” value ([6]; 250 µmol/l, footnote x = keine signifikante Wirkung) was 45 ^x % and the “Plaquereduktion in % zur Viruskontrolle auf primären HEZ” value ([6]; 62,5 µmol/l, mean of two experiments, 62.5 µM) was 0%. For the same molecule, the “% Hemmung” value (Influenza A/WSN; [17]) was > 99,99%, the “Senkung des Virusertrages im Vergleich zur unbehandelten Kontrolle” value (Influenza A/WSN; [17]) was 4,67 log10 TCID50/0,2 ml and the “% Hemmung” value (Influenza A/WSN; [18]) was > 99,99%. For the same molecule, the “Senkung des Virusertrages im Vergleich zur unbehandelten Kontrolle” value (Influenza A/WSN; [18]) was 6,23 log10 TCID50/0,2 ml, the “Senkung des Virusertrages im Vergleich zur unbehandelten Kontrolle” value (Influenza A/WSN; [19]) was 2,5 log10 TCID50/0,2 ml and the “% Hemmung” value (Influenza A/WSN; [20]) was 99,50%. The “Senkung des Virusertrages im Vergleich zur unbehandelten Kontrolle” value (Influenza A/WSN; [21]) was 4,25 log10 TCID50/0,2 ml, the “% Hemmung” value (Influenza A/WSN; [22]) was > 99,99% and the “Therapeutischer Index = Verhältnis von maximal verträglicher und minimal wirksamer Dosis” value (Influenza A/WSN; für Influenza-Virus, HEZ) was 8.
